# Test results reported in PubChem BioAssay (NCI).
#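 Briefly, cells in 96-well plates were exposed to five compound concentrations for 48 h, and endpoints were estimated by linear interpolation. GI50 marks 50% less growth. TGI: concentration producing complete growth inhibition.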
# Experiments:
# Assay in all cases: growth of human tumour cells (NCI), 48 h
# [1] = system: MCF7 breast
# [2] = system: TK-10 renal
# [3] = system: SK-MEL-2 melanoma
# [4] = system: SN12C renal
# [5] = system: NCI-H460 lung
# [6] = system: ACHN renal
# [7] = system: HL-60(TB) leukemia
# [8] = system: LOX IMVI melanoma
# [9] = system: SF-295 CNS
# [10] = system: HT29 colon
SMILES,GI50 [1] [nM],TGI [1] [µM],GI50 [2] [nM],TGI [2] [µM],GI50 [3] [nM],TGI [3] [µM],GI50 [4] [nM],TGI [4] [µM],GI50 [5] [nM],TGI [5] [µM],GI50 [6] [nM],TGI [6] [µM],GI50 [7] [nM],TGI [7] [µM],GI50 [8] [nM],TGI [8] [µM],GI50 [9] [nM],TGI [9] [µM],GI50 [10] [nM],TGI [10] [µM]
Cc1ccc(S(=O)(=O)N2C/C(=C\c3cc(F)cc(F)c3)C(=O)/C(=C/c3cc(F)cc(F)c3)C2)cc1,177,1.38,994,2.99,972,2.84,272,0.861,742,2.91,232,0.573,243,1.05,175,0.339,291,1.06,215,0.544
COc1ccc2oc(-c3ccc(Cl)cc3)c(N3CCN(C)CC3)c2c1,1700,3.5,1830,3.58,1800,4.4,2520,10.2,1940,4.16,1730,3.7,2640,> 20,1610,3.07,2060,5.12,1420,3.32
O=C(Nc1ncc(Cc2ccc(Cl)cc2)s1)c1ccc2c(c1)OCCO2,66.1,> 100,245,> 32.5,343,> 69.4,155,> 100,40.4,38.7,64.5,> 54.5,53.7,,74.2,> 100,42.4,2.02,171,> 43.4
COc1ccc(/C=C2\CCCC3=C2N=C2SC=NN2C3c2ccc(OC)c(OC)c2)cc1OC (centres undefined),2420,> 100,21000,76.2,25800,> 100,18200,> 100,22400,> 100,7710,> 100,22200,78,16600,75.1,32700,> 100,19900,> 100
COC1(C)Cc2c(c(C)c(O)c3c2C(=O)C=C(Cl)C3=O)O1 (centres undefined),,> 100,,45.6,,> 100,,> 96.7,,> 100,,56.5,,14.8,,> 100,,> 100,,67
N=c1c2c(=O)n3c(nc2nc2sc4ccc(Cl)cc4n12)-c1ccccc1Sc1ccccc1-3,3060,21.8,4300,47.1,2070,5.99,2940,14,2070,6.98,2610,16.9,2210,6.63,2690,20.2,1410,5.79,3800,18
COc1ccc2c(c1)N(CCC1CCCCN1C)c1ccccc1S2 (centres undefined),,24.5,,28.1,,29.1,,29.4,,21.5,,28.1,,24.8,,25.9,,31.2,,18.9
COc1ccc(C2SC(C)C(=O)N2NC(=O)C(O)c2ccccc2)cc1 (centres undefined),> 100000,> 100,> 100000,> 100,> 100000,> 100,> 100000,> 100,> 100000,> 100,> 100000,> 100,> 100000,> 100,> 100000,> 100,> 100000,> 100,> 100000,> 100
COc1ccc2c(c1)CC[C@@H]1[C@@H]2CC[C@]2(C)c3c(cc(C(=O)c4ccccc4)c4sccc34)C[C@@H]12,> 100000,> 100,> 100000,> 100,> 100000,> 100,> 100000,> 100,> 100000,> 100,> 100000,> 100,6730,> 100,> 100000,> 100,> 100000,> 100,> 100000,> 100
C#CCOc1c(OC)cc(C(=O)/C(C)=C/c2cccc(N=[N+]=[N-])c2)cc1OC,44.7,> 100,325,38.9,725,> 100,677,> 100,329,20.2,682,> 100,41.1,0.481,642,> 100,122,> 100,57.6,73.4
